Read-outs that look alike come from different tables or passages of the source.
Assays:
Assay in all cases: Post-emergence foliage spray, pot culture, fresh weight inhibition (Tables 1-48, 51-98, 101-148; 24 days)
Assay type in all cases: in vivo
[1] = tested on: Chenopodium album
In short: (§1)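 Pot-grown weeds were thinned to 15 per pot (45 per treatment) and sprayed on foliage at the 5–6-leaf stage for grasses or the 6–7-leaf stage for broadleaves. Agents were dissolved in acetone with 0.1% Tween-80 and applied at 450 kg/ha spray volume and 0.3 MPa. Plants were then kept in a greenhouse. Above-ground fresh weight of survivors, with dead plants counted as zero, gave inhibition versus a solvent/emulsifier blank.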

[2] = tested on: Acalypha australis
Source text: Table 1-48, 51-98, 101-148: Echinochloa crusgalli var. zelayensis, Eclipta prostrate, Galium aparine L., Alopecurus aequalis, Alopecurus japonicus, Lindernia procumbens, Veronica persica^1, Malachium aquaticum, Beckmannia syzigachne, Stellaria media were collected in Huai'an of Jiangsu Province; Commelina communis, Sonchus arvensis, Setaria glauca, Chloris virgata, Setaria faberi, Sonchus oleraceus L., Echinochloa oryzoides, Cirsium setosum, Xanthium strumarium were collected in Qiqiha'er of Heilongjiang Province; Sinapis arvensis, Veronica persica^2 were collected in Zhumadian of Henan Province; Ludwigia prostrate, Ammannia arenaria were collected in Zhuji of Zhejiang Province; Amaranthus retrojlexus, Descurainia sophia, Digitaria sanguinalis, Setaria viridis, Conyza Canadensis, Capsella bursa-pastoris, Eleusine indica, Ipomoea purpurea, Abutilon theophrasti, Chenopodium album, Acalypha australis, Solanum nigrum were collected in Qingdao of Shandong Province; Echinochloa caudate were collected in Pingluo of Ningxia Province.
The above weeds were cultivated by a pot culture method. […] Full and uniform weed seeds were selected, soaked in warm water at 25° C. for 6 hours, and germinated in a 28° C. biochemical incubator (darkness). The weed seeds that had just germinatedwere evenly placed on the surface of the soil and then covered with 0.5-1 cm soil according to the sizes of seeds.
The culture was carried out in a controllable sunlight greenhouse at 20 to 30° C., in natural light, and relative humidity of 57% to 72%.
The technical materials were all dissolved in acetone, and diluted with an aqueous solution containing 0.1% emulsifier Tween-80. The dilution is performed as required.
A ratio of the active ingredient A to the active ingredient B and amounts thereof in each group depends on the characteristics and toxicity of the two agents, as well as the main application purpose of a corresponding formulation. Based on the pre-tests in this study, the dosage of the active ingredient A and B applied alone and in combination were shown in the tables. Water containing the solvent and emulsifier same with the above groups but free of the agents was used as a blank control.
Table 1-48, 51-98, 101-148, 151-206: […] per treatment, that is, a total of 60 weeds were treated in one treatment.
Table 1-48, 51-98, 101-148: The agents were used for only once in the experiment. In the stage of weeds with 3˜4 leaves, the weeds were thinned out to maintain 15 weeds per pot and 45 weeds for each treatment, then continued to be cultured to 5˜6 leaves stage of grassy weeds, 6˜7 leaves stage of broadleaf weeds, and treated.
The well-cultured weeds were evenly placed on a platform with an area of 0.5 m^2, and a solution of agents was sprayed on the stems and leaves thereof by the 3WP-2000-type walking spray tower at a dosage of 450 kg/ha and at a spray pressure of 0.3 MPa. After all the solution was sprayed, the valve was closed. After 30 seconds, the door of the spray tower was opened, and the nutritional bowl was taken out. Then the valve was opened, and the spray tube was cleaned by spraying 50 ml of water.
A pot-culture method was employed. For the cultivation of weeds, please refer to the Section 1.1), and “Pesticide guidelines for laboratory bioactivity tests—herbicides”. As to a method for applying agents, please refer to the section 2.3.2), that is, a foliage treatment was employed. After the treatment, the weeds were routinely cultured in a greenhouse.
A method for investigating absolute number was employed, wherein whole seedlings of survival weeds were cut off with a blade along the soil surface, and the fresh weight of the weeds was weighed with an analytical balance. For dead weeds, the fresh weight thereof was zero.
Table 1-48, 51-98, 101-148, 207-216: The investigation was performed after 24 days of the treatment for only once.

[3] = tested on: Echinochloa oryzoides; conditions: Echinochloa oryzoides, 576 h, read-out: Control effect (%) of B applied alone in corresponding dose
In short: as §1

[4] = tested on: Echinochloa caudate; conditions: Echinochloa, 576 h, read-out: Control effect (%) of B applied alone in corresponding dose
In short: as §1

[5] = tested on: Echinochloa crusgalli var. zelayensis; conditions: Echinochloa crus-galli, 576 h, read-out: Control effect (%) of B applied alone in corresponding dose
In short: as §1

N#Cc1cc(Br)c(O)c(Br)c1 [bromoxynil]
Control effect (%) of B applied alone in corresponding dose ([1]; bromoxynil 18.75 g a.i./ha): 3.1%
Control effect (%) of B applied alone in corresponding dose ([1]; bromoxynil 37.5 g a.i./ha): 10.8%
Control effect (%) of B applied alone in corresponding dose ([1]; bromoxynil 75 g a.i./ha): 57.7%
Control effect (%) of B applied alone in corresponding dose ([1]; bromoxynil 150 g a.i./ha): 83.6%
Control effect (%) of B applied alone in corresponding dose ([2]; B 18.75 g a.i./ha): 4.6%
Control effect (%) of B applied alone in corresponding dose ([2]; B 37.5 g a.i./ha): 10.6%
Control effect (%) of B applied alone in corresponding dose ([2]; B 75 g a.i./ha): 58.9%
Control effect (%) of B applied alone in corresponding dose ([2]; B 150 g a.i./ha): 84.0%

O=C(O)COC(=O)c1cc(Oc2ccc(C(F)(F)F)cc2Cl)ccc1[N+](=O)[O-] [fluoroglycofen]
Control effect (%) of B applied alone in corresponding dose ([1]; Table 92, 0.9375 g a.i./ha): 2.3%
Control effect (%) of B applied alone in corresponding dose ([1]; Table 92, 1.875 g a.i./ha): 12.8%
Control effect (%) of B applied alone in corresponding dose ([1]; Table 92, 3.75 g a.i./ha): 40.0%
Control effect (%) of B applied alone in corresponding dose ([1]; Table 92, 7.5 g a.i./ha): 70.6%
Control effect (%) of B applied alone in corresponding dose ([2]; B 0.9375 g a.i./ha): 4.0%
Control effect (%) of B applied alone in corresponding dose ([2]; B 1.875 g a.i./ha): 15.7%
Control effect (%) of B applied alone in corresponding dose ([2]; B 3.75 g a.i./ha): 41.6%
Control effect (%) of B applied alone in corresponding dose ([2]; B 7.5 g a.i./ha): 71.4%

CS(=O)(=O)NC(=O)c1cc(Oc2ccc(C(F)(F)F)cc2Cl)ccc1[N+](=O)[O-] [fomesafen]
Control effect (%) of B applied alone in corresponding dose ([1]; Table 91, 22.5 g a.i./ha): 2.7%
Control effect (%) of B applied alone in corresponding dose ([1]; Table 91, 45 g a.i./ha): 18.6%
Control effect (%) of B applied alone in corresponding dose ([1]; Table 91, 90 g a.i./ha): 45.4%
Control effect (%) of B applied alone in corresponding dose ([1]; Table 91, 180 g a.i./ha): 81.9%
Control effect (%) of B applied alone in corresponding dose ([2]; B 22.5 g a.i./ha): 6.4%
Control effect (%) of B applied alone in corresponding dose ([2]; B 45 g a.i./ha): 12.6%
Control effect (%) of B applied alone in corresponding dose ([2]; B 90 g a.i./ha): 46.9%
Control effect (%) of B applied alone in corresponding dose ([2]; B 180 g a.i./ha): 82.4%

CCOC(=O)C(C)OC(=O)c1cc(Oc2ccc(C(F)(F)F)cc2Cl)ccc1[N+](=O)[O-] (stereo not shown) [lactofen]
Control effect (%) of B applied alone in corresponding dose ([1]; Table 94, 7.5 g a.i./ha): 3.3%
Control effect (%) of B applied alone in corresponding dose ([1]; Table 94, 15 g a.i./ha): 10.4%
Control effect (%) of B applied alone in corresponding dose ([1]; Table 94, 30 g a.i./ha): 39.7%
Control effect (%) of B applied alone in corresponding dose ([1]; Table 94, 60 g a.i./ha): 65.4%
Control effect (%) of B applied alone in corresponding dose ([2]; B 7.5 g a.i./ha): 2.7%
Control effect (%) of B applied alone in corresponding dose ([2]; B 15 g a.i./ha): 13.5%
Control effect (%) of B applied alone in corresponding dose ([2]; B 30 g a.i./ha): 41.4%
Control effect (%) of B applied alone in corresponding dose ([2]; B 60 g a.i./ha): 66.4%

CCOc1cc(Oc2ccc(C(F)(F)F)cc2Cl)ccc1[N+](=O)[O-] [oxyfluorfen]
Control effect (%) of B applied alone in corresponding dose ([1]; Table 93, 7.5 g a.i./ha): 3.6%
Control effect (%) of B applied alone in corresponding dose ([1]; Table 93, 15 g a.i./ha): 11.9%
Control effect (%) of B applied alone in corresponding dose ([1]; Table 93, 30 g a.i./ha): 30.7%
Control effect (%) of B applied alone in corresponding dose ([1]; Table 93, 60 g a.i./ha): 68.1%
Control effect (%) of B applied alone in corresponding dose ([2]; B 7.5 g a.i./ha): 4.6%
Control effect (%) of B applied alone in corresponding dose ([2]; B 15 g a.i./ha): 12.4%
Control effect (%) of B applied alone in corresponding dose ([2]; B 30 g a.i./ha): 32.7%
Control effect (%) of B applied alone in corresponding dose ([2]; B 60 g a.i./ha): 68.9%

CCS(=O)(=O)c1cccnc1S(=O)(=O)NC(=O)Nc1nc(OC)cc(OC)n1 [rimsulfuron]
pest or weed control at 1.875 g/ha ([3]; Table 106, 1.875 g a.i./ha): 10.3%
pest or weed control at 3.75 g/ha ([3]; Table 106, 3.75 g a.i./ha): 26.9%
pest or weed control at 7.5 g/ha ([3]; Table 106, 7.5 g a.i./ha): 43.7%
pest or weed control at 15 g/ha ([3]; Table 106, 15 g a.i./ha): 69.6%
pest or weed control at 1.875 g/ha ([4]; rimsulfuron 1.875 g a.i./ha): 5.5%
pest or weed control at 3.75 g/ha ([4]; rimsulfuron 3.75 g a.i./ha): 25.3%
pest or weed control at 7.5 g/ha ([4]; rimsulfuron 7.5 g a.i./ha): 37.9%
pest or weed control at 15 g/ha ([4]; rimsulfuron 15 g a.i./ha): 65.8%
pest or weed control at 1.875 g/ha ([5]; foliar, B 1.875 g a.i./ha, foliage spray, 24 days): 7.7%
pest or weed control at 3.75 g/ha ([5]; foliar, B 3.75 g a.i./ha, foliage spray, 24 days): 25.5%
pest or weed control at 7.5 g/ha ([5]; foliar, B 7.5 g a.i./ha, foliage spray, 24 days): 39.7%
pest or weed control at 15 g/ha ([5]; foliar, B 15 g a.i./ha, foliage spray, 24 days): 67.7%

Cc1nn(-c2cc(NS(C)(=O)=O)c(Cl)cc2Cl)c(=O)n1C(F)F [sulfentrazone]
pest or weed control at 1.875 g/ha ([3]; B 1.875 g a.i./ha): 5.8%
pest or weed control at 3.75 g/ha ([3]; B 3.75 g a.i./ha): 18.1%
pest or weed control at 7.5 g/ha ([3]; B 7.5 g a.i./ha): 29.7%
pest or weed control at 15 g/ha ([3]; B 15 g a.i./ha): 56.1%
pest or weed control at 1.875 g/ha ([4]; Table 97, 1.875 g a.i./ha): 6.6%
pest or weed control at 3.75 g/ha ([4]; Table 97, 3.75 g a.i./ha): 10.8%
pest or weed control at 7.5 g/ha ([4]; Table 97, 7.5 g a.i./ha): 24.5%
pest or weed control at 15 g/ha ([4]; Table 97, 15 g a.i./ha): 52.6%
pest or weed control at 1.875 g/ha ([5]; sulfentrazone 1.875 g a.i./ha): 2.8%
pest or weed control at 3.75 g/ha ([5]; sulfentrazone 3.75 g a.i./ha): 15.4%
pest or weed control at 7.5 g/ha ([5]; sulfentrazone 7.5 g a.i./ha): 26.9%
pest or weed control at 15 g/ha ([5]; sulfentrazone 15 g a.i./ha): 54.1%

Reference: patent US20220264878A1, “HERBICIDAL COMPOSITION CONTAINING R-TYPE PYRIDYLOXY CARBOXYLIC ACID DERIVATIVE AND USE THEREOF” (Qingdao Kingagroot Chemical Compound Co., Ltd., priority 2019, published 2022)
